Assay results: patent US11821903B2, “Sensor” (The University of Bristol, priority 2017, dated 2023)

Assay: Binding of reporter dye prodan to the lumen of alpha helical barrels (fluorescence titration)
Conditions: dissociation constant of prodan (1 μM) with alpha helical barrel 0.5-500 μM, up to 2 hours, fluorescent signal
Procedure: The dyes 1,6-diphenyl-1,3,5-hexatriene (DPH) and 6-propionyl-2-dimethylaminonaphthalene (prodan) were assayed against a number of alpha helical barrels to determine their dissociation constants, KD. DPH or prodan (1 μM) was incubated with varying concentrations of alpha helical barrel (0.5-500 μM) for up to 2 hours, and the fluorescent signal measured at the corresponding emission wavelength.

Kd | Prodan KD | Sequence
> 500 µM | did not bind | GKIEQILQKIEKILQKIEWILQKIEQILQG [CC-Pent, forms alpha helical barrel with 5 helices]
> 500 µM | did not bind | GELKAIAQELKAIAKELKAIAWELKAIAQG [CC-Hex, forms alpha helical barrel with 6 helices]
